Several values for one entry are separate records, joined by “and”; a condition that tells them apart may be missing. Identical values can stand only once. Entries after “also recorded” stand apart in the source; their conditions may differ. Like-named read-outs stand apart in the source and are kept apart here.
What was measured:
recombinant human LAT1 [1] = target: T1, recombinant human LAT1 (Homo sapiens, UniProt Q01650); assay: Inhibition of LAT1 mediated [3H]-His transport in proteoliposomes reconstituted with recombinant purified human LAT1; assay type: biochemical; design: Dose-response analysis, Mean / Dose-response analysis, single experiments: unit not given here; conditions: for % Residual Activity: 100 µM concentration, n = 3, Table S6; for IC50: 5 μM [3H]-His, proteoliposomes containing 10 mM His, mean ± S.D., three experiments; for inhibition at 100 µM: 100 µM compound; for LAT1 inhibition, activity in words: 100 μM compound, [3H]-His uptake in proteoliposomes; for Dose-response analysis, single experiments: Exp. 1, Exp. 2, Exp. 3 in this order; for Dose-response analysis, Mean: mean of Exp. 1-3; for times more potent than 1: ratio of IC50 values versus 1 (BCH)
T1 construct: made in house; host or cells: E. coli
Experimental: All 30 compounds were evaluated for their potency to inhibit LAT1 mediated histidine transport in proteoliposomes reconstituted with recombinant purified human LAT1 (see Methods). […]
Human LAT1 was over-expressed in E. coli and was purified as previously described. In brief, solubilized cell lysate was centrifuged (12,000× g, 10 min, 4 °C); supernatant was applied on a His-Trap HP column (5 mL Ni Sepharose) connected to ÄKTA start system. The column was equilibrated with 10 mL buffer (20 mM Tris HCl pH 8.0, 10% glycerol, 200 mM NaCl, 0.1% sarkosyl) prior to supernatant application. The column was washed with 10 mL buffer (20 mM Tris HCl pH 8.0, 10% glycerol, 200 mM NaCl, 0.05% DDM, and 2 mM DTE) and the protein was eluted with the same buffer plus 400 mM imidazole. Purified protein was desalted, in order to remove imidazole, using a PD-10 column in a buffer containing 20 mM Tris HCl pH 8.0, 10% glycerol, 0.05% DDM and 10 mM DTE.
The purified human LAT1 was reconstituted by detergent removal approach using the batch-wise method, as previously described. In brief, the initial mixture contained: 4 μg of purified protein, 100 μL of 10% C12E8, 100 μL of 10% egg yolk phospholipids (w/v) in the form of liposomes that were prepared as previously described, 20 mM Tris HCl pH 7.5, and 10 mM L-His in a final volume of 700 μL. This mixture was incubated with 0.5 g of Amberlite XAD-4 for 90 min at 23 °C, 1200 rpm to retain detergent.
To perform transport assays, the external substrate was removed by gel filtration chromatography: 600 μL of proteoliposomes were passed through a Sephadex G-75 column (0.7 cm diameter × 15 cm height) pre-equilibrated with 20 mM Tris HCl pH 7.5 and a concentration of sucrose to balance internal osmolarity. Transport was started adding 5 μM [^3H]-His to proteoliposomes and stopped after 30 min according to the stop inhibitor method, as previously described. In brief, in controls 1.5 µM HgCl2 was added at time zero and radioactivity was subtracted to samples for calculating net transport. After stopping the transport reaction, 100 μL of proteoliposomes was subjected to gel filtration chromatography using a Sephadex G-75 column (0.6 cm diameter × 8 cm height), to separate the external from the internal radioactivity. Proteoliposomes were eluted with 1 mL 50 mM NaCl in 4 mL scintillation mixture and counted. […] Protein concentration was estimated by Chemidoc imaging system1 [104] to calculate the human LAT1 specific activity.

cancer growth = system: cancer growth; design: method as in PMID 21187458, PMID 18520037, PMID 18813831; conditions: cited from earlier work
recombinant human LAT1 [2] = target: T1, recombinant human LAT1; conditions: cited from earlier work
LAT1 [3] = conditions: human colon cancer (HT-29) cells; cited from earlier work
LAT1 [4] = conditions: S2 cells; cited from earlier work
LAT1 [5] = conditions: experimental value, compared with MM-PBSA prediction

T1 sequence (Q01650 whole entry): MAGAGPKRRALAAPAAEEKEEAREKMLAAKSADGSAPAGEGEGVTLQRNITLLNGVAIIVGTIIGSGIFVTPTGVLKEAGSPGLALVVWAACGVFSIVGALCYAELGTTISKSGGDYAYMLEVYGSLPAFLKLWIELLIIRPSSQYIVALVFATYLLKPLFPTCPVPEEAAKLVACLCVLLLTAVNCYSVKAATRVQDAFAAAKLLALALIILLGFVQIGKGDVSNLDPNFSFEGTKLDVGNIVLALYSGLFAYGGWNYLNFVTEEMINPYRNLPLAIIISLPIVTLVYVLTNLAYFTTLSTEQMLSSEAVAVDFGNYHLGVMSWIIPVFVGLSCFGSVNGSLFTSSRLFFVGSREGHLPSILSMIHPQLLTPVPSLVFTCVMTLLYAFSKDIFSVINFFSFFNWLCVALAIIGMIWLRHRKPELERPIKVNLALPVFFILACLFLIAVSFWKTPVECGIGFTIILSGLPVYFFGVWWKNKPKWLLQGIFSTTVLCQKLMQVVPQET

NC1(C(=O)O)CC2CCC1C2 (centres unmarked) [Compound 1, 2-Amino-2-norbornanecarboxylic acid]
% Residual Activity (recombinant human LAT1 [1]): 6.1% | concentration required to attain antiproliferative effects (cancer growth): > 10 mM | IC50 (recombinant human LAT1 [2]; same test system, determined previously): 6800 ± 270 nM

Nc1cc(COc2c(Cl)cc(C[C@H](N)C(=O)O)cc2Cl)c2oc(-c3ccccc3)nc2c1 [Compound 2]
IC50 (LAT1 [3]): 60 nM | IC50 (LAT1 [4]): 140 nM

FC(F)(F)Oc1ccc(/N=c2\ssnc2Cl)cc1 [Compound 3, (Z)-4-chloro-N-(4-(trifluoromethoxy)phenyl)-5H-1,2,3-dithiazol-5-imine]
inhibition of human LAT1 reconstituted in proteoliposomes, in words (recombinant human LAT1 [2]): potent inhibition

NC1(C(=O)O)CCc2ccccc2C1 (centres unmarked) [Compound 8, 2-Amino-1,2,3,4-tetrahydro-2-naphthoic acid]
times more potent than 10 (LAT1 [5]): 9

N[C@@H](CCc1cc(Cl)cc(Cl)c1)C(=O)O [Compound 36]
IC50 (recombinant human LAT1 [1]): 640 ± 120 nM | inhibition at 100 µM (recombinant human LAT1 [1]): > 90% | LAT1 inhibition, activity in words (recombinant human LAT1 [1]): highly active; also recorded: almost complete inhibition | % Residual Activity (recombinant human LAT1 [1]): 0% | Dose-response analysis, single experiments (recombinant human LAT1 [1]; 0.1 [] M compound): 81.30 and 100.31 and 62.08 | Dose-response analysis, Mean (recombinant human LAT1 [1]; 0.1 [] M compound): 81.23 | Dose-response analysis, Mean (recombinant human LAT1 [1]; 0.2 [] M compound): 82.32 | Dose-response analysis, Mean (recombinant human LAT1 [1]; 0.5 [] M compound): 45.71 | Dose-response analysis, single experiments (recombinant human LAT1 [1]; 1 [] M compound): 38.13 and 55.14 and 40.82 | Dose-response analysis, Mean (recombinant human LAT1 [1]; 1 [] M compound): 44.70 | Dose-response analysis, Mean (recombinant human LAT1 [1]; 2.5 [] M compound): 28.38 | Dose-response analysis, Mean (recombinant human LAT1 [1]; 5 [] M compound): 5.92 | Dose-response analysis, single experiments (recombinant human LAT1 [1]; 10 [] M compound): 0.00 | Dose-response analysis, Mean (recombinant human LAT1 [1]; 10 [] M compound): 0.00 | Dose-response analysis, Mean (recombinant human LAT1 [1]; 25 [] M compound): 13.53 | Dose-response analysis, Mean (recombinant human LAT1 [1]; 50 [] M compound): 2.08 | Dose-response analysis, Mean (recombinant human LAT1 [1]; 100 [] M compound): 14.15 | times more potent than 1 (recombinant human LAT1 [1]): ~ 10

N[C@@H](Cc1ccc2ccccc2n1)C(=O)O [Compound 37]
LAT1 inhibition, activity in words (recombinant human LAT1 [1]): slightly active | % Residual Activity (recombinant human LAT1 [1]): 65.31%

N[C@@H](Cc1ccc(OCc2c(Cl)cccc2Cl)cc1)C(=O)O [Compound 38]
inhibition at 100 µM (recombinant human LAT1 [1]): 80 to 90% | % Residual Activity (recombinant human LAT1 [1]): 13.17%

N[C@@H](CSC(c1ccccc1)(c1ccccc1)c1ccccc1)C(=O)O [Compound 39]
inhibition at 100 µM (recombinant human LAT1 [1]): 80 to 90% | % Residual Activity (recombinant human LAT1 [1]): 11.76%

N[C@@H](Cc1cn(Cc2ccccc2)cn1)C(=O)O [Compound 40]
inhibition at 100 µM (recombinant human LAT1 [1]): 80 to 90% | % Residual Activity (recombinant human LAT1 [1]): 11.34%

N[C@@H](Cc1cccc(C(F)(F)F)c1)C(=O)O [Compound 41]
inhibition at 100 µM (recombinant human LAT1 [1]): 80 to 90% | % Residual Activity (recombinant human LAT1 [1]): 15.21%

N[C@@H](Cc1c[nH]c2ccc(OCc3ccccc3)cc12)C(=O)O [Compound 42]
IC50 (recombinant human LAT1 [1]): 1480 ± 270 nM | inhibition at 100 µM (recombinant human LAT1 [1]): > 90% | LAT1 inhibition, activity in words (recombinant human LAT1 [1]): almost complete inhibition | % Residual Activity (recombinant human LAT1 [1]): 7.83% | Dose-response analysis, single experiments (recombinant human LAT1 [1]; 0.1 [] M compound): 91.01 and 109.97 and 91.55 | Dose-response analysis, Mean (recombinant human LAT1 [1]; 0.1 [] M compound): 97.51 | Dose-response analysis, single experiments (recombinant human LAT1 [1]; 0.2 [] M compound): 77.34 and 82.24 and 73.67 | Dose-response analysis, Mean (recombinant human LAT1 [1]; 0.2 [] M compound): 77.75 | Dose-response analysis, single experiments (recombinant human LAT1 [1]; 0.5 [] M compound): 72.30 and 76.32 and 64.01 | Dose-response analysis, Mean (recombinant human LAT1 [1]; 0.5 [] M compound): 70.88 | Dose-response analysis, single experiments (recombinant human LAT1 [1]; 1 [] M compound): 64.39 and 51.09 and 41.55 | Dose-response analysis, Mean (recombinant human LAT1 [1]; 1 [] M compound): 52.34 | Dose-response analysis, single experiments (recombinant human LAT1 [1]; 2.5 [] M compound): 42.45 and 36.45 and 24.15 | Dose-response analysis, Mean (recombinant human LAT1 [1]; 2.5 [] M compound): 34.35 | Dose-response analysis, Mean (recombinant human LAT1 [1]; 5 [] M compound): 29.11 | Dose-response analysis, Mean (recombinant human LAT1 [1]; 10 [] M compound): 18.24 | Dose-response analysis, Mean (recombinant human LAT1 [1]; 25 [] M compound): 21.07 | Dose-response analysis, single experiments (recombinant human LAT1 [1]; 50 [] M compound): 12.95 and 13.71 and 13.30 | Dose-response analysis, Mean (recombinant human LAT1 [1]; 50 [] M compound): 13.32 | Dose-response analysis, Mean (recombinant human LAT1 [1]; 100 [] M compound): 14.52 | times more potent than 1 (recombinant human LAT1 [1]): ~four times more potent

From article PMC6337383, “Discovery of Potent Inhibitors for the Large Neutral Amino Acid Transporter 1 (LAT1) by Structure-Based Methods” (International Journal of Molecular Sciences, 2018)
